# Reference: US12533428B2, “Multimodal fluorine-CY3/5/7-DOTA-hapten compositions, diagnostics, fluorescence guided surgery and radioimmunotherapy” (Memorial Sloan Kettering Cancer Center, priority 2019, dated 2026)
# How the values were obtained:
# [1] = test system: GD2-expressing IMR32Luc neuroblastoma cells; assay: Cell binding with anti-tumor/anti-DOTA BsAb, FACS; assay type: cell-based
# Experimental: The cell binding activity of [F]Cy3D (Compound 6) was assayed with an anti-tumor/anti-DOTA bispecific antibody (BsAb). To detect binding of Compound 6 to GD2-expressing IMR32Luc neuroblastoma cells using an anti-GD2/anti-DOTA BsAb or a control BsAb (anti-HER2/anti-DOTA), cells were incubated with 1 μg of BsAb or PBS, washed and then incubated with several versions of Compound 6: (1) Compound 6, (2) [^175Lu]Pre-Compound 6 where ^175Lu was added before a mock ^19F isotope exchange, (3) [^19F]Pre-[^175Lu]Compound 6, where a mock ^19F isotope exchange was done before ^175Lu was added, and (4) [^175Lu]-Compound 6 where ^175Lu was directly added to Compound 6 without isotope exchange. Cells were analyzed by FACS or fluorescent microscopy.
# IMR32luc cells = assay: Cell binding with BsAb, fluorescent microscopy; assay type: cell-based; settings: IMR32luc cells incubated with anti-GD2/anti-DOTA BsAb
# Experimental: The cell binding of Compound 6 and [^175Lu]-Compound 6 variants was then studied using fluorescent microscopy. IMR32luc cells were incubated with Anti-GD2/Anti-DOTA BsAb, a control anti-DOTA BsAb or no BsAb, followed by incubation with Compound 6 or [^175Lu]-Compound 6 variants. […] Binding was not detected when a control anti-DOTA BsAb was added (FIG. 14) or no BsAb was added (FIG. 15).
# [2] = test system: GPA33-expressing human colorectal cancer SW1222 subcutaneous xenograft; assay: Ex vivo biodistribution of anti-GPA33 pretargeted [^18F]CyD; assay type: in vivo, Athymic nude mice; settings: 2 h p.i.
# Experimental: (§1) In vivo pretargeting of [^18F]CyD for PET imaging of human colorectal cancer xenograft (SW1222 human carcinoma cell line). Athymic nude mice bearing the GPA33-expressing human colorectal cancer SW1222 subcutaneous xenograft were used as a model for anti-GPA33 DOTA-PRIT. The groups were intravenously (i.v.) injected with BsAb huA33-C825 (250 μg, 1.19 nmol), followed 24 h later with i.v. injection of dendron CA ([…], 2.76 nmol; (glycodendrimer-based CA α-thio-N-acetylgalactosamine-16-DOTA-Y^3; see WO2020014386)) and after an additional 4 h, i.v. injection of [^18F]CyD (1.295 MBq (35 μCi), 0.23 nmol). Non-invasive PET/CT imaging was performed using a preclinical Inveon PET/CT system at ˜1 h post-injection (p.i.) of [^18F]CyD (see FIG. 23), followed with ex vivo biodistribution assay of radioactivity.
# [3] = test system: GPA33-expressing human colorectal cancer SW1222 subcutaneous xenograft; assay: PET/CT imaging of pretargeted [^18F]CyD; assay type: in vivo, Athymic nude mice; settings: approximately 1 h after i.v. injection (1.295 MBq, 0.23 nmol), pretargeted tumor-bearing mice
# Experimental: as §1
# [4] = test system: GPA33-expressing SW1222 colon cancer cells; assay: Binding with anti-GPA33/anti-DOTA BsAb, FACS flow cytometry (MFI); assay type: cell-based, human
# Experimental: Next [^175Lu]-Compound 6 binding to GPA33-expressing SW1222 colon cancer cells was investigated. SW1222 cells were incubated with 25, 2.5 or 0.25 pmol of anti-GPA33/Anti-DOTA BsAb, or a control (anti-GD2/anti-DOTA) BsAb, washed and mixed with 50, 5 or 0.5 pmol of [^175Lu]-Compound 6.
# [5] = test system: subcutaneous GD2-expressing tumor (IMR32Luc); assay: ^18F-PET imaging of GD2-positive subcutaneous tumor; assay type: in vivo; settings: IMR32Luc tumor mouse, anti-GD2/anti-DOTA BsAb 24 h and clearing agent 4 h before PET; image after 2 hours
# Experimental: A pilot PET study using ([^175Lu][^18F]-Compound 6) was carried out. For that purpose, a mouse bearing a subcutaneous GD2-expressing tumor (IMR32Luc) was pretreated (24 hours pre PET) with an anti-GD2/anti-DOTA BsAb and followed with DOTA-dendrimer clearing agent (glycodendrimer-based CA α-thio-N-acetylgalactosamine-16-DOTA-Y^3; see WO2020014386) (4 hours before PET) and [^175Lu][^18F]-Compound 6. After 2 hours the image was collected by a PET scan. […] Moreover, the small size of [^175Lu][^18F]-Compound 6 reduced background activity dramatically in a short amount of time.
structure (smiles),measurement,setting,value
"CC1(C)C(/C=C/C=C2/N(CCCCCC(=O)Nc3ccc(CC4CN(CC(=O)O)CCN(CC(=O)O)CCN(CC(=O)O)CCN4CC(=O)O)cc3)c3ccc(S(=O)(=O)[O-])cc3C2(C)C)=[N+](CCCCCC(=O)NCC[N+](C)(C)C[B-](F)(F)F)c2ccc(S(=O)(=O)O)cc21 (centres unmarked) [Compound 6, [F]Cy3D]","Binding to cells (fluorescence, FACS)",[1]; IMR32Luc cells incubated with 1 μg anti-GD2/anti-DOTA BsAb,shows no fluorescence
same,"Binding to cells (fluorescence, FACS)","[1]; IMR32Luc cells, negative controls: no BsAb or control BsAb (anti-HER2/anti-DOTA)",no binding
same,Binding to cells (fluorescent microscopy),IMR32luc cells,did not show binding
CC1(C)C(=C/C=C/C2=[N+](CCCCCC(=O)NCC[N+](C)(C)C[B-](F)(F)[18F])c3ccc(S(=O)(=O)[O-])cc3C2(C)C)N(CCCCCC(=O)Nc2ccc(CC3CN(CC(=O)[O-])CCN(CC(=O)[O-])CCN(CC(=O)[O-])CCN3CC(=O)[O-])cc2)c2ccc(S(=O)(=O)[O-])cc21.[175Lu+3] (centres unmarked) [[^18F]CyD],Bone uptake,[2]; SW1222-tumor bearing mice,1.65±0.48 % ID/g
same,Large intestine uptake,[2]; SW1222-tumor bearing mice,8.41±2.62 % ID/g
same,Blood uptake,"[2]; n=3, SW1222-tumor bearing mice",0.17±0.12 % ID/g
same,Kidney uptake,"[2]; n=3, SW1222-tumor bearing mice",0.87±0.11 % ID/g
same,Tumor Uptake,"[2]; n=3, SW1222-tumor bearing mice",5.14±1.24 % ID/g
same,T:NT for blood,[2]; tumor to blood,31±13
same,T:NT for kidney,[2]; tumor to kidney,6±1
same,Activity in the tumor by PET/CT,[3],high activity is present in the tumor
"CC1(C)C(=CC=CC2=[N+](CCCCCC(=O)NCC[N+](C)(C)C[B-](F)(F)F)c3ccc(S(=O)(=O)[O-])cc3C2(C)C)N(CCCCCC(=O)Nc2ccc(CC3CN(CC(=O)[O-])CCN(CC(=O)[O-])CCN(CC(=O)[O-])CCN3CC(=O)[O-])cc2)c2ccc(S(=O)(=O)[O-])cc21.[175Lu+3] (centres unmarked) [[^175Lu]-Compound 6, [F]Cy3D[^175Lu]]",Mean fluorescence (MFI) of binding,"[4]; SW1222 cells, 25, 2.5 or 0.25 pmol anti-GPA33/anti-DOTA BsAb, 50, 5 or 0.5 pmol probe",proportionate to the amount
same,Binding to cells (FACS),"[4]; SW1222 cells, control anti-GD2/anti-DOTA BsAb",no binding
"CC1(C)C(=CC=CC2=[N+](CCCCCC(=O)NCC[N+](C)(C)C[B-](F)(F)[18F])c3ccc(S(=O)(=O)[O-])cc3C2(C)C)N(CCCCCC(=O)Nc2ccc(CC3CN(CC(=O)[O-])CCN(CC(=O)[O-])CCN(CC(=O)[O-])CCN3CC(=O)[O-])cc2)c2ccc(S(=O)(=O)[O-])cc21.[175Lu+3] (centres unmarked) [[^175Lu][^18F]-Compound 6, [^18F]Cy3D[^175Lu]]",Tumor targeting by PET scan,[5],specifically targeted to the BsAb-treated tumor
